The values below come from patent publication US7862995B2, “Methods and materials for predicting responsiveness to treatment with dual tyrosine kinase inhibitor” (Targeted Molecular Diagnostics, priority 2004, dated 2011).

SMILES strings stand for the structures. “Also recorded” adds a separate entry of the source.

Data set [1] is described as follows: Clinical response of a subject treated with a small molecule dual inhibitor of EGFR/erbB2. Type of data set: in vivo, human. Particulars: one subject.
Data set [2] deals with forkhead transcription factor 3 (FOXO3A) in AU-565 breast cancer cells. As to the kind of experiment: FOXO3A staining of AU-565 breast cancer cells. It counts as cell-based.
A further data set concerns FOXO3. Nature of the data set: ELISA gel for FOXO3. As to conditions: following treatment.
The test system of data set [3] is ER in breast cancer tissues. As to the kind of experiment: IHC of ER in breast cancer tissues after treatment. Type of data set: in vivo.
The test system of data set [4] is invasive breast carcinoma. As to the kind of experiment: TUNEL staining of PCD in patient tumor samples. It counts as in vivo, human.
Protocol: All TUNEL solutions and staining reagents used in the present invention were purchased from Roche. Paraffin-embedded tissue clinical samples were dewaxed and rehydrated by heating at 60° C. followed by washing in xylene and rehydration through a graded series of washes with ethanol and double distilled water. Samples were incubated for 15-30 min at 21-37° C. with Proteinase K. Slides were rinsed twice with PBS. The area around the sample was dried and 50 μl of TUNEL reaction mixture was added to each slide. A coverslip was added to each slide and incubated for 60 min at 37° C. in a humidified chamber in the dark. The slides were rinsed three times with PBS. The TUNEL signal was converted by first drying the area around the sample and then adding 50 μl of Converter-POD reagent. The slides were incubated in a humidified chamber for 30 min at 37° C. and then rinsed three times in PBS. 100 μl of DAB Substrate was added to each slide and incubated for 10 min at 15-25° C. The slides were then rinsed three times with PBS. Slides were mounted under glass coverslips and TUNEL staining was analyzed under a light microscope.
Another data set relates to BT474 breast tumor cells. Nature of the data set: Cell death in estrogen-stimulated BT474 cells, methylene blue staining. As to conditions: 1 μM estrogen 24 hr, 5 μM GW2974 90 min, 10 μM tamoxifen 72 hr. It counts as cell-based, human. Here is the method: Exponentially growing BT474 cells were treated with 1 μM estrogen for 24 hr. After 24 hr the cells were either untreated or treated with 5 μM small molecule dual inhibitor of EGFR/erbB2 (Sigma, GW2974) for 90 min. After 90 min, the cells were either untreated or treated with 10 μM tamoxifen for 72 hr. Cells were then washed with 1×PBS, stained with methylene blue (1% methylene blue in 50% methanol), rinsed with water, and dried overnight.

In the next data set the test system is ER in MCF-7(HER2) cells. As to the kind of experiment: ER localization by immunofluorescence in MCF-7(HER2) cells. Type of data set: cell-based. Particulars: 1 mM GW2974 for 4 days. An excerpt:
Nuclei are stained with DAPI and ER is detected by an immunofluorescent antibody

Data set [5] relates to AU-565 breast cancer cells. Nature of the data set: Viability of AU-565 and Bcl-2-transfected AU-565 cells after GW2974 treatment. Type of data set: cell-based. An excerpt:
Au-565 breast cancer cells were obtained from the American Tissue Culture Collection, (deposit # CRL-2351) (Manassas, Va.) and were transfected with a Bcl-2 cDNA to express high levels of Bcl-2. Methods of transfecting cells are well known in the art and any known methods may be used in this example. Transfected Au-565 cells were then exposed to GW2974 (Sigma-Aldrich, St. Louis, Mo.), a dual EGFR/HER2 tyrosine kinase inhibitor.

Data set [6] deals with breast, gastric, and head/neck carcinoma cell lines compared to normal human foreskin fibroblasts (HFF). As to conditions: cited from earlier work.
Data set [7] concerns ER (and PR) expression in breast cancer cells. As to the kind of experiment: ER (and PR) expression in breast cancer cells. Type of data set: cell-based.
Data set [8] relates to pAkt, pErk1 and pErk2 in MCF-7+HER2 cells. Nature of the data set: Western blot of MCF-7+HER2 cells for pErk1/Erk2/pAkt. It counts as cell-based. (In general: In western blotting, separated proteins are transferred to a membrane and probed.)

As to `CS(=O)(=O)CCNCc1ccc(-c2ccc3ncnc(Nc4ccc(OCc5cccc(F)c5)c(Cl)c4)c3c2)o1` [lapatinib], in data set [1], the clinical response entry is reported as “complete response”. For the same compound, the “duration of response / disease free state” value in [1] (following treatment) was “at least 20 months”. In data set [2], the FOXO3A expression result is listed as “upregulated; also recorded: upregulates FOXO3A”. Besides, the FOXO3 expression entry with FOXO3 is “upregulation of FOXO3”. Further, the ER localization result in data set [3] is recorded as “change in ER localization”. Moreover, in data set [4] (patient with invasive breast carcinoma (IBC) positive for TUNEL staining), the “response of TUNEL-positive patient to treatment” value was “responded well”. Further, the “levels of PCD by TUNEL staining” value in data set [4] (patient with invasive breast carcinoma, 21 days after treatment) is reported as “significantly increased levels of PCD”.
Consider `CN(C)c1cc2c(Nc3ccc4c(cnn4Cc4ccccc4)c3)ncnc2cn1` [GW2974], for which, in the data set on BT474 breast tumor cells, the cell death entry was “increases cell death in the presence of tamoxifen”. In addition, the ER localization entry in the data set on ER in MCF-7(HER2) cells is recorded as “accumulation of the ER in the cellular nucleus”. The viable cells entry in data set [5] (AU-565/Bcl-2 cells (overexpressing Bcl-2) treated by GW2974) is listed as “approximately 50%”; in data set [5] (AU-565 cells treated by GW2974), around 20%. Further, in data set [5] (following treatment with GW2974), the “higher rate of cell survival in cells with high Bcl-2 expression” value is reported as “approximately 30%”. Besides, in data set [6], the “selectivity in inhibiting cell growth” value was “greater than 75 fold”. The “ER (and PR) expression” value in data set [7] is on record as “upregulates ER (and PR) expression”. Further, in [8] (MCF-7+HER2 cells pre-treated with estrogen, then GW2974), the “effectiveness in cells pre-treated with estrogen” value was “not effective”. Further, the pAkt expression result in [8] (MCF-7+HER2 cells treated with GW2974) is listed as “not expressed; also recorded: greatly reduced”. Moreover, the “expression of pErk1 and pErk2” value in data set [8] (MCF-7+HER2 cells treated with GW2974, relative to baseline control (actin)) is “decreased”.
